Experimental data: patent US8329703B2, “Pyrazole compounds” (XTL Biopharmaceuticals Ltd., priority 2005, dated 2012)
pIC50: −log10 of the molar value.

Tested on: HCV Replicon (HCV IRES driven luciferase reporter) in Huh-Luc-Neo cells
Experiment: HCV Replicon Luciferase Assay
Type: cell-based
Settings: Hepatitis C virus, 48 h, Huh-Luc-Neo cells, no unit printed in table (b301 gives IC50s in μM), read-out: Luciferase IC50
Procedure: (§1) The identification of inhibitors of HCV replication and/or proliferation has been facilitated by the development of a cell based system to study HCV replication and assay for HCV inhibitors. Inhibition of HCV replication may be performed using the HCV Replicon Assay developed in the laboratories of Bartenschlager (Lohman et al, Science 285, 110-113, 1999) and Rice (Blight et al, Science 290, 1972-1974, 2000). The assay is performed using the Huh-Luc-Neo cell line (Lohman et al, Science 285, 110-113, 1999). Huh-Luc-Neo cells are a human hepatoma cell line (Huh-7) stably expressing a bi-cistronic subgenomic replicon containing the HCV IRES in which the […] of HCV had been deleted and replaced by a construct containing sequences coding for the firefly luciferase reporter gene, the neomycin selectable marker and the EMCV IRES to direct expression of a truncated HCV genome expressing the […] NS3, NS4A, NS4B, NS5A, and NS5B. HCV targets through which inhibitors could act to inhibit replication include the NS3 protease, the helicase/ATPase, NS5A, the NS5B-RNA dependent RNA polymerase, and the HCV IRES.
(§2) Expression of HCV IRES driven luciferase reporter activity and HCV RNA is measured to obtain indirect and direct measures of replication of HCV RNA respectively. Inhibitors of HCV replication and/or proliferation are determined by initially identifying molecules that inhibit expression of the HCV IRES driven luciferase reporter in this HCV Replicon Luciferase Assay. Cell viability assays and control cell based luciferase assays are then run on hits identified in the HCV Replicon Luciferase Assay to eliminate cytoxic compounds and non-specific compounds which act by inhibiting the luciferase enzyme.
(§3) Day 0, Cell Seeding and Compound Treatment: Huh-Luc-Neo Cells are seeded at 25,000/well in an opaque-walled 96 plate with Growth Medium (DMEM phenol red free+PS+2 mM glutamine; 100 μl/well). The compounds to be tested are added to the experimental wells (10 μl/well at 10× assay concentration) and the cells are then incubated (5% CO2, 37° C.) for 48 h.
(§4) Day 2, Reagent Preparation and Luciferase Assay: The Bright-Glo Luciferase Assay Buffer (Promega) is thawed and equilibrated to room temperature prior to use. The lyophilized Bright-Glo Luciferase Assay Substrate is equilibrated to room temperature prior to use. 10 ml of Bright-Glo Luciferase Assay Buffer is transferred to 1 vial of Bright-Glo Luciferase Assay Substrate bottle and mixed by gently with a Vortex. 100 ul of Bright-Glo Luciferase Assay reagent (Bright-Glo Luciferase Assay Buffer+Bright-Glo Luciferase Assay Substrate Mixture) is added to each well. The well contents are mixed for 5 min. on an orbital shaker at room temperature to induce cell lysis and the luminescence is then measured using a luminometer. The data is analyzed and IC50s are determined using GraphPad Prism 4 software. Hits validated in the Replicon Luciferase assay have IC50s<8.0 μM and show <30% inhibition of Cell Viability at a compound concentration of 100 μM (Cell Titer Glow Assay, cell viability assay conditions identical to HCV Replicon Luciferase Assay conditions).

Which IC50 does the source give for `Cn1cc(C#CC(C)(C)C)c(-c2cc([N+](=O)[O-])ccc2NC2CCCCC2)n1` [VQ_36661] here?
Its IC50 is 0.63 µM.

Which IC50 does the source give for `Cn1cc(C#CC(C)(C)C)c(-c2cc([N+](=O)[O-])ccc2NCc2c(F)cccc2F)n1` [VQ_36665] here?
The IC50 was 0.03 µM.

With `CC(Nc1ccc([N+](=O)[O-])cc1-c1nn(C)cc1C#CC(C)(C)C)c1ccccc1` (centres unmarked) [VQ_36666] as the molecule, how does the IC50 read?
The IC50 was 0.35 µM.

`Cc1cnc(Nc2ccc([N+](=O)[O-])cc2-c2nn(C)cc2C#CC(C)(C)C)s1` [VQ_36669] was tested. Which IC50 did it give?
The IC50 was 0.01 µM.

`Cn1cc(-c2ccc(O)c(-c3nn(C)cc3C#CC(C)(C)C)c2)cn1` [VQ_95538] was tested. Which IC50 did it give?
The IC50 was 9.8 µM.

Same assay, conditions: Hepatitis C virus, 48 h, read-out: Luciferase IC50

How did the pIC50 turn out when `Cn1cc(C#CC(C)(C)C)c(-c2cc([N+](=O)[O-])ccc2NCc2cc(F)cc(F)c2)n1` [VQ_36659] was run?
Its pIC50 is 7.40.

Same assay, conditions: Hepatitis C virus, 48 h, read-out: Luciferase IC50, Huh-Luc-Neo cells, 48 h; no unit printed in table (b301 gives IC50s in μM)

How did the IC50 turn out when `Cn1cc(C#CC(C)(C)C)c(-c2cc([N+](=O)[O-])ccc2NCC(C)(C)CNc2ccc([N+](=O)[O-])cc2-c2nn(C)cc2C#CC(C)(C)C)n1` [VQ_36660] was run?
Its IC50 is 10.4 µM.

For `Cn1cc(C#CC(C)(C)C)c(-c2cc([N+](=O)[O-])ccc2NCCCNc2ccc([N+](=O)[O-])cc2-c2nn(C)cc2C#CC(C)(C)C)n1` [VQ_36673], which IC50 is on record?
Its IC50 is 2.09 µM.

Tested on: HCV RNA (HCV Replicon) in Huh-Luc-Neo cells
Experiment: HCV Replicon RNA Assay (Taqman quantitative PCR)
Type: cell-based
Settings: Hepatitis C virus, 48 h, 2 compound treatments over 48 h, no unit printed in table (b307 gives IC50s in μM)
Procedure: as §1, §2
as §3, with “C.).” for “C.) for 48 h.”
Day 1, Media Change and Compound Treatment: 24 hours after the initial compound treatment the cell culture media is aspirated from the wells and fresh Growth Medium is added (DMEM phenol red free+PS+2 mM glutamine; 100 μl/well). The compounds to be tested are then added to the appropriate experimental wells (10 μl/well at 10× assay concentration) and the cells are then incubated (5% CO2, 37° C.) for an additional 24 hrs.
Day 2, RNA Isolation and cDNA Synthesis: The cells are washed with 1× Phosphate Buffered Saline (PBS) once.
(§5) Day 3, Quantitative PCR Based Measurement of HCV RNA (Taqman Assay): Quantitative PCR analysis to measure HCV RNA expression from cDNA synthesized on Day 2 is performed using the ABI 9700 HT Sequence Detection System (Applied Biosystems) as previously described (Lohman et al, Science 285, 110-113, 1999). The data is analyzed and IC50s are determined using GraphPad Prism 4 software. Hits validated in the Replicon RNA Assay have IC50s<8.0 μM and show <30% inhibition of Cell Viability at a compound concentration of 50 μM (Cell Titer Glow Assay, cell viability assay conditions identical to HCV Replicon RNA Assay conditions).

With `Cn1cc(C#CC(C)(C)C)c(-c2cc([N+](=O)[O-])ccc2NCc2cc(F)cc(F)c2)n1` [VQ_36659] as the molecule, how does the IC50 read?
Its IC50 is 0.3 µM.

How did the IC50 turn out when `Cn1cc(C#CC(C)(C)C)c(-c2cc([N+](=O)[O-])ccc2NCC(C)(C)CNc2ccc([N+](=O)[O-])cc2-c2nn(C)cc2C#CC(C)(C)C)n1` [VQ_36660] was run?
The IC50 was 0.59 µM.

With `Cn1cc(C#CC(C)(C)C)c(-c2cc([N+](=O)[O-])ccc2NC2CCCCC2)n1` [VQ_36661] as the molecule, how does the IC50 read?
Its IC50 is 0.55 µM.

Which IC50 does the source give for `Cn1cc(C#CC(C)(C)C)c(-c2cc([N+](=O)[O-])ccc2NCc2c(F)cccc2F)n1` [VQ_36665] here?
The IC50 was 0.72 µM.

For `CC(Nc1ccc([N+](=O)[O-])cc1-c1nn(C)cc1C#CC(C)(C)C)c1ccccc1` (centres unmarked) [VQ_36666], which IC50 is on record?
The IC50 was 0.38 µM.

`Cc1cnc(Nc2ccc([N+](=O)[O-])cc2-c2nn(C)cc2C#CC(C)(C)C)s1` [VQ_36669] was tested. Which IC50 did it give?
The IC50 was 0.9 µM.

For `Cn1cc(C#CC(C)(C)C)c(-c2cc([N+](=O)[O-])ccc2NCCCNc2ccc([N+](=O)[O-])cc2-c2nn(C)cc2C#CC(C)(C)C)n1` [VQ_36673], which IC50 is on record?
The IC50 was 0.42 µM.

`Cn1cc(-c2ccc(O)c(-c3nn(C)cc3C#CC(C)(C)C)c2)cn1` [VQ_95538] was tested. Which IC50 did it give?
The IC50 was 1.35 µM.

Tested on: Huh-Luc-Neo cells
Experiment: Cell Titer-Glo Cell Viability Assay
Type: cell-based, human
Settings: inhibition of cell viability at 50 μM, 2 doses, conditions identical to HCV Replicon RNA Assay
Procedure: as §4, §5
Day 0, Cell Seeding and Compound Treatment: Huh-Luc-Neo Cells are seeded at 25,000/well in an opaque-walled 96 plate with Growth Medium (DMEM phenol red free+PS+2 mM glutamine; 100 ul/well).
Day 2, Reagent Preparation and Assay: The CellTiter-Glo Buffer is thawed and equilibrated to room temperature prior to use. The lyophilized CellTiter-Glo Substrate is equilibrated to room temperature prior to use. 10 ml of CellTiter-Glo Buffer is transferred to 1 vial of CellTiter-Glo Substrate and mixed by gently with a Vortex. 100 μl of CellTiter-Glo Assay reagent (CellTiter-Glo Buffer+CellTiter-Glo Substrate Mixture) is added to each well. The well contents are mixed for 5 min. on an orbital shaker at room temperature to induce cell lysis and the luminescence is then measured using a luminometer.

Which “Toxicity % Inhibition at 50 μM (2 doses)” value does the source give for `Cn1cc(C#CC(C)(C)C)c(-c2cc([N+](=O)[O-])ccc2NCc2cc(F)cc(F)c2)n1` [VQ_36659] here?
The value was 21.9%.

Which “Toxicity % Inhibition at 50 μM (2 doses)” value does the source give for `Cn1cc(C#CC(C)(C)C)c(-c2cc([N+](=O)[O-])ccc2NCC(C)(C)CNc2ccc([N+](=O)[O-])cc2-c2nn(C)cc2C#CC(C)(C)C)n1` [VQ_36660] here?
Its value is 15.8%.

`Cn1cc(C#CC(C)(C)C)c(-c2cc([N+](=O)[O-])ccc2NC2CCCCC2)n1` [VQ_36661] was tested. Which “Toxicity % Inhibition at 50 μM (2 doses)” value did it give?
Its value is 14.4%.

For `Cn1cc(C#CC(C)(C)C)c(-c2cc([N+](=O)[O-])ccc2NCc2c(F)cccc2F)n1` [VQ_36665], which “Toxicity % Inhibition at 50 μM (2 doses)” value is on record?
The value was 25.6%.

For `CC(Nc1ccc([N+](=O)[O-])cc1-c1nn(C)cc1C#CC(C)(C)C)c1ccccc1` (centres unmarked) [VQ_36666], which “Toxicity % Inhibition at 50 μM (2 doses)” value is on record?
Its value is 19.0%.

`Cc1cnc(Nc2ccc([N+](=O)[O-])cc2-c2nn(C)cc2C#CC(C)(C)C)s1` [VQ_36669] was tested. Which “Toxicity % Inhibition at 50 μM (2 doses)” value did it give?
The value was 26.7%.

For `Cn1cc(C#CC(C)(C)C)c(-c2cc([N+](=O)[O-])ccc2NCCCNc2ccc([N+](=O)[O-])cc2-c2nn(C)cc2C#CC(C)(C)C)n1` [VQ_36673], which “Toxicity % Inhibition at 50 μM (2 doses)” value is on record?
Its value is 19.7%.

With `Cn1cc(-c2ccc(O)c(-c3nn(C)cc3C#CC(C)(C)C)c2)cn1` [VQ_95538] as the molecule, how does the “Toxicity % Inhibition at 50 μM (2 doses)” value read?
The value was 6.1%.

Same assay, conditions: inhibition of cell viability at 100 μM, 1 dose, conditions identical to HCV Replicon Luciferase Assay (48 h)

How did the “Toxicity % Inhibition at 100 μM (1 dose)” value turn out when `Cn1cc(C#CC(C)(C)C)c(-c2cc([N+](=O)[O-])ccc2NCc2cc(F)cc(F)c2)n1` [VQ_36659] was run?
The value was 13.0%.

Which “Toxicity % Inhibition at 100 μM (1 dose)” value does the source give for `Cn1cc(C#CC(C)(C)C)c(-c2cc([N+](=O)[O-])ccc2NCC(C)(C)CNc2ccc([N+](=O)[O-])cc2-c2nn(C)cc2C#CC(C)(C)C)n1` [VQ_36660] here?
The value was 15.3%.

With `Cn1cc(C#CC(C)(C)C)c(-c2cc([N+](=O)[O-])ccc2NC2CCCCC2)n1` [VQ_36661] as the molecule, how does the “Toxicity % Inhibition at 100 μM (1 dose)” value read?
The value was 9.5%.

Which “Toxicity % Inhibition at 100 μM (1 dose)” value does the source give for `Cn1cc(C#CC(C)(C)C)c(-c2cc([N+](=O)[O-])ccc2NCc2c(F)cccc2F)n1` [VQ_36665] here?
Its value is 12.8%.

For `CC(Nc1ccc([N+](=O)[O-])cc1-c1nn(C)cc1C#CC(C)(C)C)c1ccccc1` (centres unmarked) [VQ_36666], which “Toxicity % Inhibition at 100 μM (1 dose)” value is on record?
The value was 12.9%.

How did the “Toxicity % Inhibition at 100 μM (1 dose)” value turn out when `Cc1cnc(Nc2ccc([N+](=O)[O-])cc2-c2nn(C)cc2C#CC(C)(C)C)s1` [VQ_36669] was run?
The value was 23.2%.

For `Cn1cc(C#CC(C)(C)C)c(-c2cc([N+](=O)[O-])ccc2NCCCNc2ccc([N+](=O)[O-])cc2-c2nn(C)cc2C#CC(C)(C)C)n1` [VQ_36673], which “Toxicity % Inhibition at 100 μM (1 dose)” value is on record?
Its value is 15.9%.

Which “Toxicity % Inhibition at 100 μM (1 dose)” value does the source give for `Cn1cc(-c2ccc(O)c(-c3nn(C)cc3C#CC(C)(C)C)c2)cn1` [VQ_95538] here?
The value was 24.3%.
